In PubChem BioAssay (NCI):
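Cultured in 96-well plates, cells were exposed to test compound for 48 hours across five concentrations. Abbreviation: GI50, concentration required for 50% inhibition of growth. TGI: total growth inhibition.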

Legend:
Assay in all cases: DTP human tumour cell line panel, 48 h
LOX IMVI melanoma = tested on: LOX IMVI melanoma
UACC-62 melanoma = tested on: UACC-62 melanoma
OVCAR-5 ovarian = tested on: OVCAR-5 ovarian
UACC-257 melanoma = tested on: UACC-257 melanoma
M14 melanoma = tested on: M14 melanoma
SNB-75 CNS = tested on: SNB-75 CNS
SW-620 colon = tested on: SW-620 colon
K-562 leukemia = tested on: K-562 leukemia
RXF 393 renal = tested on: RXF 393 renal
DU-145 prostate = tested on: DU-145 prostate

Row | Structure (SMILES) | GI50 (LOX IMVI melanoma) [µM] | TGI (LOX IMVI melanoma) [µM] | GI50 (UACC-62 melanoma) [µM] | TGI (UACC-62 melanoma) [µM] | GI50 (OVCAR-5 ovarian) [µM] | TGI (OVCAR-5 ovarian) [µM] | GI50 (UACC-257 melanoma) [µM] | TGI (UACC-257 melanoma) [µM] | GI50 (M14 melanoma) [µM] | TGI (M14 melanoma) [µM] | GI50 (SNB-75 CNS) [µM] | TGI (SNB-75 CNS) [µM] | GI50 (SW-620 colon) [µM] | TGI (SW-620 colon) [µM] | GI50 (K-562 leukemia) [µM] | TGI (K-562 leukemia) [µM] | GI50 (RXF 393 renal) [µM] | TGI (RXF 393 renal) [µM] | GI50 (DU-145 prostate) [µM] | TGI (DU-145 prostate) [µM]
1 | COc1ccc(Cl)cc1NC(=O)C(Br)C(Br)C(=O)O (stereo not given) | 1.02 | 2.52 | 2.81 | 8.93 | 27.9 | 57 | 11 | 40.5 | 14.9 | 34.9 | 26.6 | > 60.1 | 5 | > 51.5 | 1.46 | > 100 | 18.8 | 40.9 | 35.7 | > 100
2 | COC(=O)C1(F)C(=O)NC(=O)NC1O (stereo not given) | – | > 100 | – | > 100 | – | > 100 | – | > 100 | – | > 100 | – | > 100 | – | > 100 | – | > 100 | – | > 100 | – | > 100
3 | Cc1ccc2c(O)c(O)cc(NC(C)CCCN)c2n1 (stereo not given) | 4.55 | 25.4 | 27.3 | > 66.8 | 7.36 | 25.2 | 19.8 | 54.5 | 33.6 | > 88.1 | 24.6 | > 62.7 | 10.2 | 51.3 | 12.3 | 60.4 | > 69.1 | > 100 | 10.5 | 31.4
4 | O=C(Cc1cccc(OC(F)(F)F)c1)Nc1ccc(CCCCc2nnc(NC(=O)Cc3ccccn3)s2)nn1 | 25.9 | > 100 | 19.9 | > 100 | > 100 | > 100 | 29.3 | > 100 | 36.3 | > 100 | 11.1 | 38.6 | 40.4 | > 100 | 16.9 | > 100 | 4.34 | 22.7 | 25.8 | > 100
5 | O=C(Nc1ccc(Cl)cc1)c1cc(-c2ccc(Cl)cc2)c2sc(=O)[nH]c2n1 | 2.88 | 10.6 | 1.04 | 4.91 | 3.41 | 29.3 | 1.19 | 4.69 | 2.75 | 10.3 | 1.7 | 8.03 | 2.9 | 15.2 | 1.27 | > 100 | 2.77 | 7.42 | 3.31 | 26.5
6 | Cc1ccc(SC2=CC(=O)c3nc4ccccc4c4ccnc2c34)cc1 | 28.5 | > 100 | 43.3 | > 100 | > 79.9 | > 100 | 24.7 | 77.7 | 51.9 | > 100 | 39.8 | > 100 | 23.1 | 47.9 | 35.5 | > 100 | 21.9 | 50 | 43 | > 67.4
